Results published in patent US8067532B2, “Modifications of peptide compositions to increase stability and delivery efficiency” (KAI Pharmaceuticals, Inc., priority 2007, dated 2011).
No end group written: not given here.

Tests used:
brain tissue = assay: Stroke model, percent infarction; assay type: in vivo; details: versus uncapped KAI-9706
Description: KAI-1455 was tested in a stroke model.

[1] = Plasma stability of capped peptides (KAI-9706 modified step-wise at amino and carboxy termini); assay type: in vitro ADME, rat; details: versus uncapped KAI-9706
Source text: Plasma stability of capped peptides was compared.

cardiac tissue = assay: Langendorff assay, in vitro post-ischemia model (CK release); design: species or system rat; details: versus the unmodified form
Description: The ability of the capped composition to inhibit ischemic damage in a rat heat model (Langendorff Assay) was evaluated versus the uncapped form.

[2] = versus KAI-9706 and KAI-9803
[3] = versus KAI-9706 and KAI-9803; remark: listed apart in the source
[4] = versus KAI-9706 and KAI-9803; remark: listed apart in the source
[5] = In vitro biological stability of linear epsilon PKC inhibitors in human serum; assay type: in vitro ADME; details: LC/MS; for stability in human serum (percent remaining over time): 100 μg/ml, room temperature
Description: The peptides were then analyzed by LC/MS.

[6] = Effect of D-peptides on plasma stability of KAI-9706; details: All-L, scrambled or retro-inverso (R/I) carrier and cargo
Description: KAI-9706 was engineered with D-amino acids to determine their impact on peptide composition stability. Unmodified KAI-9706 was compared to a peptide composition with the same amino acid sequence, however the amino acids used were d-enantiomers instead of 1-amino acids. A retro-inverso version and a scrambled version of the peptide composition were also prepared.

CC[C@H](C)[C@H](NC(=O)[C@@H]1CCCN1C(=O)[C@H](C)NC(=O)[C@H](CC(=O)O)NC(=O)[C@H](Cc1c[nH]cn1)NC(=O)[C@@H](N)CSSC[C@H](NC(C)=O)C(=O)N[C@@H](Cc1ccc(O)cc1)C(=O)NCC(=O)N[C@@H](CCCNC(=N)N)C(=O)N[C@@H](CCCCN)C(=O)N[C@@H](CCCCN)C(=O)N[C@@H](CCCNC(=N)N)C(=O)N[C@@H](CCCNC(=N)N)C(=O)N[C@@H](CCC(N)=O)C(=O)N[C@@H](CCCNC(=N)N)C(=O)N[C@@H](CCCNC(=N)N)C(=O)N[C@@H](CCCNC(=N)N)C(N)=O)C(=O)NCC(=O)N[C@@H](Cc1ccc(O)cc1)C(=O)N[C@@H](CC(=O)O)C(=O)O [KAI-1455]
protection to brain tissue as judged by percent infract (brain tissue): increased protection to brain tissue
plasma half life [1]: increase the plasma half life
ability to inhibit ischemic damage (potency, CK release) (cardiac tissue): Maintains In Vitro Potency
stability in rat serum (percent intact over time) [2]: increased plasma stability
stability in pig serum (percent intact over time) [3]: increased plasma stability
stability in human serum (percent intact over time) [4]: increased plasma stability

EAVSLKPTGGYGRKKRRQRRR-NH2 [KP-1633]
stability in human serum (percent remaining over time) [5]: increased stability

CC[C@H](C)[C@H](NC(=O)[C@@H]1CCCN1C(=O)[C@H](C)NC(=O)[C@H](CC(=O)O)NC(=O)[C@H](Cc1c[nH]cn1)NC(=O)[C@@H](N)CSSC[C@H](N)C(=O)N[C@@H](Cc1ccc(O)cc1)C(=O)NCC(=O)N[C@@H](CCCNC(=N)N)C(=O)N[C@@H](CCCCN)C(=O)N[C@@H](CCCCN)C(=O)N[C@@H](CCCNC(=N)N)C(=O)N[C@@H](CCCNC(=N)N)C(=O)N[C@@H](CCC(N)=O)C(=O)N[C@@H](CCCNC(=N)N)C(=O)N[C@@H](CCCNC(=N)N)C(=O)N[C@@H](CCCNC(=N)N)C(=O)O)C(=O)NCC(=O)N[C@@H](Cc1ccc(O)cc1)C(=O)N[C@@H](CC(=O)O)C(=O)O [KAI-9706]
% parent remaining at 15 mins [6]: 1%

KP-1680: linear epsilon PKC inhibitor peptide shown in FIG. 16 (EAVSLKPTGGYGRKKRRQRRR)
degradation products / metabolized forms ([5]; serum): sequential cleavage of arginine residues from the C-terminus

Ac-EAVSLKPTGGYGRKKRRQRRR-NH2 [KP-1678]
stability in human serum (percent remaining over time) [5]: increased stability
